Like-named read-outs stand apart in the source and are kept apart here.
How the values were obtained:
[1] = biological target: T1, BRAF V600E (Homo sapiens, UniProt P15056+Q96SW2, V600E); assay: BRAF V600E HiBiT Degradation Assay; type: cell-based; conditions: A375.10 cells, BRAF V600E
T1 construct: knock-in of the HiBiT tag to the endogenous BRAF V600E locus; host or cells: A375.10 (A375 clonal line, CRISPR HiBiT knock-in at the endogenous BRAF V600E locus)
In short: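 Endogenous HiBiT knock-in on BRAF V600E in A375 cells (clone A375.10); 11-point half-log series, top 10 μM, 2, 6 or 24 h at 37° C. Lytic HiBiT luminescence, background-subtracted, normalized to DMSO; 4-parameter fit gives DC50, Emax (residual protein) and IP (inflection point).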

[2] = system: A375-NRAS^Q61K cells; assay: CTGlo Cell Viability Assay, A375-NRAS^Q61K (A375.11) cells, 96 hours; type: cell-based, human; conditions: Homo sapiens, 96 h, A375.11 (A375-NRAS^Q61K) cells; for Emax: lowest % viability achieved
In short: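 Viability as CellTiter-Glo ATP luminescence after 96 h compound exposure at 37 °C; A375.11 (BRAF V600E/NRAS Q61K) cells at 250/well, top final concentration 10 μM in half-log steps. Signal was background-corrected and set relative to DMSO controls. A 4-parameter logistic fit gave GI50 (50% crossing) and Emax.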

[3] = 2 hours, inflection point, read-out: HiBiT-Degradation A375.10 BRAF 2 hours IP
[4] = 2 hours, read-out: HiBiT-Degradation A375.10 BRAF 2 hours DC50
[5] = 2 hours, residual protein remaining, read-out: HiBiT-Degradation A375.10 BRAF 2 hours Emax
[6] = HiBiT, 24 hours, read-out: HiBiT-Degradation A375.10 BRAF 24 hours DC50
[7] = HiBiT, 24 hours, read-out: HiBiT-Degradation A375.10 BRAF 24 hours Emax
[8] = HiBiT, 24 hours, read-out: HiBiT-Degradation A375.10 BRAF 24 hours IP

T1 sequence (P15056 whole entry V600E): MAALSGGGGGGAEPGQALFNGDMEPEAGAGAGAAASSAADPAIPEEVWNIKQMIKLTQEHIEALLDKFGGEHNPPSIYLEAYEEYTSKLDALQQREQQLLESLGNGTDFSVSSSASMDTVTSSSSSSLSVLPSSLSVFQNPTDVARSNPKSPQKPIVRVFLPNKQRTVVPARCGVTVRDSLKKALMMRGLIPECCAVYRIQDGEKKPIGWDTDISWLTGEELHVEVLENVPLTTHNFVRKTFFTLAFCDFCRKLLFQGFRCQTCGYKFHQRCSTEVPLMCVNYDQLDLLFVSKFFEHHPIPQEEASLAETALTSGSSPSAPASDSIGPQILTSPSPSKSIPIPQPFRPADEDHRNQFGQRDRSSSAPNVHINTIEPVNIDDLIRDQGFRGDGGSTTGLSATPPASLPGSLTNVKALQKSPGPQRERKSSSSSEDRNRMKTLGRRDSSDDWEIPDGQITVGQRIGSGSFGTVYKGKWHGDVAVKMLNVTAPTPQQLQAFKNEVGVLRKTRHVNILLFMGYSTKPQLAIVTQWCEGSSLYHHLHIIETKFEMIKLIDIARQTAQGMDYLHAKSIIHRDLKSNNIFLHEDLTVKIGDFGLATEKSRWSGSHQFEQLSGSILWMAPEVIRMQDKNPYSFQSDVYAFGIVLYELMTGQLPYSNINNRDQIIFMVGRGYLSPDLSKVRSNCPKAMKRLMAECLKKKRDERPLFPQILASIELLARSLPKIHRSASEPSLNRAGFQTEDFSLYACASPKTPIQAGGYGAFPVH
T1 sequence (Q96SW2 whole entry): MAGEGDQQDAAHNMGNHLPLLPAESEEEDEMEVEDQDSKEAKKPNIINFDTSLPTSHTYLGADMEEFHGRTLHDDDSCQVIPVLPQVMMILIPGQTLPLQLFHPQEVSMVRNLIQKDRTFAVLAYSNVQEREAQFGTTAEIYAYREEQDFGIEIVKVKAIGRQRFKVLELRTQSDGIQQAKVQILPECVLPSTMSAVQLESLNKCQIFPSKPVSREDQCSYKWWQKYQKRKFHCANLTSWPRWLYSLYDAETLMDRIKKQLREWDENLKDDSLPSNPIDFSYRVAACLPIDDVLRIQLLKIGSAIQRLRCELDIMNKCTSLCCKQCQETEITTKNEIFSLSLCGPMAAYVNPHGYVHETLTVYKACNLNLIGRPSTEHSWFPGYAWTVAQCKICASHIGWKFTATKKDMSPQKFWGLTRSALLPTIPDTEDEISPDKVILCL
T1 sequence (Q16531 whole entry partner): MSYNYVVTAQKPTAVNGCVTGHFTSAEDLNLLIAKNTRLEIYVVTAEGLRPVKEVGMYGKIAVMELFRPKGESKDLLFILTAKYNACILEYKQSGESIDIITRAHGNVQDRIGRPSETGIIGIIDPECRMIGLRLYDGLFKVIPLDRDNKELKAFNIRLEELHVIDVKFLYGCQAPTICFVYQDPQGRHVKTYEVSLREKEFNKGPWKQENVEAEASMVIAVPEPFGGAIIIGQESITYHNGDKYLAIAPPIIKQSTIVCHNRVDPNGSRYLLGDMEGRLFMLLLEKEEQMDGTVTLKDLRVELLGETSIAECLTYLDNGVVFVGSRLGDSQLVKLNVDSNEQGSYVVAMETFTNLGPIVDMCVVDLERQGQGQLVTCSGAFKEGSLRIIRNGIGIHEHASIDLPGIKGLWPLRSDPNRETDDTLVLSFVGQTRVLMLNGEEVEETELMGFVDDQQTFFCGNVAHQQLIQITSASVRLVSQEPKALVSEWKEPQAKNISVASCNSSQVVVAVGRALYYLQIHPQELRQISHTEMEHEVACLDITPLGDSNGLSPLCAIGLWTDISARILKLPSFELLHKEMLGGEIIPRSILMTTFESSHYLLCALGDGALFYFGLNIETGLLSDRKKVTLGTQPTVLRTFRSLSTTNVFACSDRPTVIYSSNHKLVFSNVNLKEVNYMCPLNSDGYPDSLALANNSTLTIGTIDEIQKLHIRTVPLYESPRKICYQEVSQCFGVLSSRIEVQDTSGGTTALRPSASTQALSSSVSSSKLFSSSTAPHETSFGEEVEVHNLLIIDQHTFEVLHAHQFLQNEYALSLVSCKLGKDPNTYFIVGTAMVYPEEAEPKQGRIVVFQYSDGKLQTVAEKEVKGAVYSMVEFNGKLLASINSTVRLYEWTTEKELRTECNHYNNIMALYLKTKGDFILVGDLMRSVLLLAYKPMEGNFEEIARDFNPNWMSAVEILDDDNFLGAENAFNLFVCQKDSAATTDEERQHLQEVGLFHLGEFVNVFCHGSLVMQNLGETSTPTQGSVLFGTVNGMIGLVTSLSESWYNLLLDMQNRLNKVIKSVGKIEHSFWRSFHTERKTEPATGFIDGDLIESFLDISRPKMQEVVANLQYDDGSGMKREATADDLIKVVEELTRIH

CCN(C)S(=O)(=O)Nc1ccc(F)c(Oc2ccc3ncn(C4CC5(CC(N6CC[C@H](c7cc8c(cc7F)c(N7CCC(=O)NC7=O)nn8C)C(F)(F)C6)C5)C4)c(=O)c3c2)c1C#N (stereo partly drawn) [Compound 217, 6-[2-cyano-3-[[ethyl(methyl)sulfamoyl]amino]-6-fluoro-phenoxy]-3-[2-[(4R)-4-[3-(2,4-dioxohexahydropyrimidin-1-yl)-5-fluoro-1-methyl-indazol-6-yl]-3,3-difluoro-1-piperidyl]spiro[3.3]heptan-6-yl]-4-oxo-quinazoline]
DC50 [1, 3]: < 1000 nM
DC50 [1, 4]: < 1000 nM
Emax [1, 5]: < 50%
GI50 [2]: 1000 to 10000 nM
Emax [2]: 50 to 90%

CCN(C)S(=O)(=O)Nc1ccc(F)c(Oc2ccc3ncn(C4CC5(CCN(C6CCC7(CC6)CN(c6cc8c(cc6F)c(N6CCC(=O)NC6=O)nn8C)C7)CC5)C4)c(=O)c3c2)c1C#N (stereo not drawn) [Compound 220, 6-[2-cyano-3-[[ethyl(methyl)sulfamoyl]amino]-6-fluoro-phenoxy]-3-[7-[2-[3-(2,4-dioxohexahydropyrimidin-1-yl)-5-fluoro-1-methyl-indazol-6-yl]-2-azaspiro[3.5]nonan-7-yl]-7-azaspiro[3.5]nonan-2-yl]-4-oxo-quinazoline]
DC50 [1, 3]: < 1000 nM
DC50 [1, 4]: > 10000 nM
Emax [1, 5]: 50 to 90%
GI50 [2]: > 10000 nM
Emax [2]: 50 to 90%

CCN(C)S(=O)(=O)Nc1ccc(F)c(Oc2ccc3ncc(OCC4CCN(C5CC6(C5)CN(c5cc7c(cc5F)c(N5CCC(=O)NC5=O)nn7C)C6)CC4)nc3c2)c1C#N [Compound 223, 7-[2-cyano-3-[[ethyl(methyl)sulfamoyl]amino]-6-fluoro-phenoxy]-2-[[1-[2-[3-(2,4-dioxohexahydropyrimidin-1-yl)-5-fluoro-1-methyl-indazol-6-yl]-2-azaspiro[3.3]heptan-6-yl]-4-piperidyl]methoxy]quinoxaline]
DC50 [1, 3]: < 1000 nM
DC50 [1, 4]: < 1000 nM
Emax [1, 5]: < 50%
GI50 [2]: 1000 to 10000 nM
Emax [2]: 50 to 90%

CCN(C)S(=O)(=O)Nc1ccc(F)c(Oc2ccc3ncn(C4CC5(CCC(N6CC[C@H](c7cc8c(cc7F)c(N7CCC(=O)NC7=O)nn8C)C(F)(F)C6)CC5)C4)c(=O)c3c2)c1C#N (stereo partly drawn) [Compound 224, 6-[2-cyano-3-[[ethyl(methyl)sulfamoyl]amino]-6-fluoro-phenoxy]-3-[7-[(4R)-4-[3-(2,4-dioxohexahydropyrimidin-1-yl)-5-fluoro-1-methyl-indazol-6-yl]-3,3-difluoro-1-piperidyl]spiro[3.5]nonan-2-yl]-4-oxo-quinazoline]
DC50 [1, 3]: < 1000 nM
DC50 [1, 4]: < 1000 nM
Emax [1, 5]: < 50%
GI50 [2]: < 1000 nM
Emax [2]: 50 to 90%

CCN(C)S(=O)(=O)Nc1ccc(F)c(Oc2ccc3ncn(C4CC5(CCC(N6CC[C@@H](c7cc8c(cc7F)c(N7CCC(=O)NC7=O)nn8C)C(F)(F)C6)CC5)C4)c(=O)c3c2)c1C#N (stereo partly drawn) [Compound 225, 6-[2-cyano-3-[[ethyl(methyl)sulfamoyl]amino]-6-fluoro-phenoxy]-3-[7-[(4S)-4-[3-(2,4-dioxohexahydropyrimidin-1-yl)-5-fluoro-1-methyl-indazol-6-yl]-3,3-difluoro-1-piperidyl]spiro[3.5]nonan-2-yl]-4-oxo-quinazoline]
DC50 [1, 3]: < 1000 nM
DC50 [1, 4]: < 1000 nM
Emax [1, 5]: < 50%
GI50 [2]: < 1000 nM
Emax [2]: < 50%

CCN(C)S(=O)(=O)Nc1ccc(F)c(Oc2ccc3ncn(C4CC5(CCN(CC6(O)CCN(c7cc8c(cc7F)c(N7CCC(=O)NC7=O)nn8C)CC6)CC5)C4)c(=O)c3c2)c1C#N [Compound 226, 6-[2-cyano-3-[[ethyl(methyl)sulfamoyl]amino]-6-fluoro-phenoxy]-3-[7-[[1-[3-(2,4-dioxohexahydropyrimidin-1-yl)-5-fluoro-1-methyl-indazol-6-yl]-4-hydroxy-4-piperidyl]methyl]-7-azaspiro[3.5]nonan-2-yl]-4-oxo-quinazoline]
DC50 [1, 3]: < 1000 nM
DC50 [1, 4]: < 1000 nM
Emax [1, 5]: < 50%
DC50 [1, 6]: < 1000 nM
Emax [1, 7]: < 50%
DC50 [1, 8]: < 1000 nM
GI50 [2]: < 1000 nM
Emax [2]: 50 to 90%

CCN(C)S(=O)(=O)Nc1ccc(F)c(Oc2ccc3ncn(C4CC5(CC(N6CC[C@@H](c7cc8c(cc7F)c(N7CCC(=O)NC7=O)nn8C)C(F)(F)C6)C5)C4)c(=O)c3c2)c1C#N (stereo partly drawn) [Compound 227, 6-[2-cyano-3-[[ethyl(methyl)sulfamoyl]amino]-6-fluoro-phenoxy]-3-[2-[(4S)-4-[3-(2,4-dioxohexahydropyrimidin-1-yl)-5-fluoro-1-methyl-indazol-6-yl]-3,3-difluoro-1-piperidyl]spiro[3.3]heptan-6-yl]-4-oxo-quinazoline]
DC50 [1, 3]: < 1000 nM
DC50 [1, 4]: < 1000 nM
Emax [1, 5]: < 50%
GI50 [2]: 1000 to 10000 nM
Emax [2]: 50 to 90%

CCN(C)S(=O)(=O)Nc1ccc(F)c(Oc2ccc3ncn([C@H]4COC5(CCN(CC6(O)CCN(c7cc8c(cc7F)c(N7CCC(=O)NC7=O)nn8C)CC6)CC5)C4)c(=O)c3c2)c1C#N [Compound 230, (3R)-3-[6-[2-cyano-3-[[ethyl(methyl)sulfamoyl]amino]-6-fluoro-phenoxy]-4-oxo-quinazolin-3-yl]-8-[[1-[3-(2,4-dioxohexahydropyrimidin-1-yl)-5-fluoro-1-methyl-indazol-6-yl]-4-hydroxy-4-piperidyl]methyl]-1-oxa-8-azaspiro[4.5]decane]
DC50 [1, 3]: < 1000 nM
DC50 [1, 4]: < 1000 nM
Emax [1, 5]: < 50%
DC50 [1, 6]: < 1000 nM
Emax [1, 7]: < 50%
DC50 [1, 8]: < 1000 nM
GI50 [2]: < 1000 nM
Emax [2]: 50 to 90%

CCN(C)S(=O)(=O)Nc1ccc(F)c(Oc2ccc3ncn([C@H]4COC5(CCN(CC6CN(c7cc8c(cc7F)c(N7CCC(=O)NC7=O)nn8C)C6)CC5)C4)c(=O)c3c2)c1C#N [Compound 231, (3R)-3-[6-[2-cyano-3-[[ethyl(methyl)sulfamoyl]amino]-6-fluoro-phenoxy]-4-oxo-quinazolin-3-yl]-8-[[1-[3-(2,4-dioxohexahydropyrimidin-1-yl)-5-fluoro-1-methyl-indazol-6-yl]azetidin-3-yl]methyl]-1-oxa-8-azaspiro[4.5]decane]
DC50 [1, 3]: < 1000 nM
DC50 [1, 4]: < 1000 nM
Emax [1, 5]: 50 to 90%
DC50 [1, 6]: < 1000 nM
Emax [1, 7]: < 50%
DC50 [1, 8]: < 1000 nM
GI50 [2]: 1000 to 10000 nM
Emax [2]: 50 to 90%

Cn1nc(N2CCC(=O)NC2=O)c2cc(F)c(N3CC4(CC(N5CCC6(CC5)C[C@@H](n5cnc7ccc(Oc8c(F)ccc(NS(=O)(=O)C9CC9)c8C#N)cc7c5=O)CO6)C4)C3)cc21 [Compound 234, N-[2-cyano-3-[3-[(3R)-8-[2-[3-(2,4-dioxohexahydropyrimidin-1-yl)-5-fluoro-1-methyl-indazol-6-yl]-2-azaspiro[3.3]heptan-6-yl]-1-oxa-8-azaspiro[4.5]decan-3-yl]-4-oxo-quinazolin-6-yl]oxy-4-fluoro-phenyl]cyclopropanesulfonamide]
DC50 [1, 3]: < 1000 nM
DC50 [1, 4]: < 1000 nM
Emax [1, 5]: < 50%
DC50 [1, 6]: < 1000 nM
Emax [1, 7]: < 50%
DC50 [1, 8]: < 1000 nM
GI50 [2]: < 1000 nM
Emax [2]: 50 to 90%

Cn1nc(N2CCC(=O)NC2=O)c2cc(F)c(N3CC4(CC(N5CCC6(CC5)C[C@@H](n5cnc7ccc(Oc8c(F)ccc(NS(=O)(=O)N9C[C@H]%10C[C@H]%10C9)c8C#N)cc7c5=O)CO6)C4)C3)cc21 [Compound 241, (1S,5R)-N-[2-cyano-3-[3-[(3R)-8-[2-[3-(2,4-dioxohexahydropyrimidin-1-yl)-5-fluoro-1-methyl-indazol-6-yl]-2-azaspiro[3.3]heptan-6-yl]-1-oxa-8-azaspiro[4.5]decan-3-yl]-4-oxo-quinazolin-6-yl]oxy-4-fluoro-phenyl]-3-azabicyclo[3.1.0]hexane-3-sulfonamide]
DC50 [1, 3]: < 1000 nM
DC50 [1, 4]: < 1000 nM
Emax [1, 5]: < 50%
GI50 [2]: 1000 to 10000 nM
Emax [2]: 50 to 90%

Cn1nc(N2CCC(=O)NC2=O)c2cc(F)c(N3CC4(CC(N5CCC6(CC5)C[C@@H](n5cnc7ccc(Oc8c(F)ccc(NS(=O)(=O)N9CCOCC9)c8C#N)cc7c5=O)CO6)C4)C3)cc21 [Compound 242, N-[2-cyano-3-[3-[(3R)-8-[2-[3-(2,4-dioxohexahydropyrimidin-1-yl)-5-fluoro-1-methyl-indazol-6-yl]-2-azaspiro[3.3]heptan-6-yl]-1-oxa-8-azaspiro[4.5]decan-3-yl]-4-oxo-quinazolin-6-yl]oxy-4-fluoro-phenyl]morpholine-4-sulfonamide]
DC50 [1, 3]: < 1000 nM
DC50 [1, 4]: 1000 to 10000 nM
Emax [1, 5]: 50 to 90%
GI50 [2]: > 10000 nM
Emax [2]: 50 to 90%
